Measurements: patent US12674026B2, “Process for preparing polyol-based esters of acyl-capped hydroxy carboxylic acids” (KetoLipix Therapeutics GmbH, priority 2019, dated 2026)

What was measured:
pancreatin = tested on: pancreatin
Procedure: Both media are from the company Biorelevant®, Ltd. in Great Britain. In addition, in some experiments porcine pancreas is added (Panzytrat® 40,000, Fa. Allergan).
The pancreatin is used in the form of the commercially available product Panzytrat® 40,000 from the Allergan company. The whole mixture is stirred on a hotplate at 50° C.; the course of the reaction is determined and followed by continuous recording of the acid number over time.

[1] = even if several grams are taken; cited from earlier work

**Q.** For “3-acetylacetobutyric acid mono-diglycerol ester [3-acetylaceto-BHB mono-diglycerol ester]”, which cleavage by pancreatin (pancreatin) is on record?
**A.** cleaved by pancreatin

**Q.** With CC(O)CC(=O)O (stereo not shown) [3-hydroxybutyric acid] as the compound, how does the duration of ketosis [1] read?
**A.** three to four

**Q.** Which cleavage by pancreatin (pancreatin) does the source give for “3-acetylacetobutyric acid tri-diglycerol ester [3-acetylaceto-BHB tri-diglycerol ester]” here?
**A.** cleaved by pancreatin

**Q.** With “3-acetylacetobutyric acid di-diglycerol ester [3-acetylaceto-BHB di-diglycerol ester]” as the compound, how does the cleavage by pancreatin (pancreatin) read?
**A.** cleaved by pancreatin
